# In ChEMBL document CHEMBL4837262, “Development and Profiling of Inverse Agonist Tools for the Neuroprotective Transcription Factor Nurr1” (J Med Chem, 2021):
# Calls of active or inactive are those of the source. The rule behind the calls is not given here.
# How the values were obtained:
# [1] = biological target: T1, Nuclear receptor subfamily 4 group A member 2 (Homo sapiens, UniProt P43354); experiment: Inverse agonist activity at Gal4-fused human Nurr1 LBD expressed in HEK293T cells co-expressing firefly luciferase assessed as luciferase activity by hybrid reporter gene assay; type: cell-based
# T1 sequence (P43354 whole entry, the tested form may be a part): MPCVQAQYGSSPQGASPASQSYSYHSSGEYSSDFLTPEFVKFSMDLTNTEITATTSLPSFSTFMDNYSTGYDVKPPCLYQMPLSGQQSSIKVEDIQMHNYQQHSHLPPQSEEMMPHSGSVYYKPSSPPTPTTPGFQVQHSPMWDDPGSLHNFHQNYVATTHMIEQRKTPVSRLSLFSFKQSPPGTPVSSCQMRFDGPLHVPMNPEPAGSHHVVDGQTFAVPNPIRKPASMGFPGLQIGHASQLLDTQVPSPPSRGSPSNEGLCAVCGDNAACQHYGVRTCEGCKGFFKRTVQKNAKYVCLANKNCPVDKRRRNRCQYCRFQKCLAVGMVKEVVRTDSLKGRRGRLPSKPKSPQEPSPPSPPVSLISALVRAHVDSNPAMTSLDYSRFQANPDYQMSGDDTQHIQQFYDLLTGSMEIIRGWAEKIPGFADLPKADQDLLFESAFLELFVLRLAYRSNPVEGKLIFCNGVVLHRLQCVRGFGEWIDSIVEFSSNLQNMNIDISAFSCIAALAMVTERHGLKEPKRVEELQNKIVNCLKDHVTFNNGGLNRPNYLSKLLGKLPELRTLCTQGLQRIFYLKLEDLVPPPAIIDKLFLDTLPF
# [2] = test system: T98G; experiment: Cytotoxicity against human T98G cells assessed as reduction in cell viability upto 100 uM after 24 hrs by WST-1 assay; type: cell-based
# [3] = test system: HEK-293T; experiment: Cytotoxicity against human HEK293T cells assessed as reduction in cell viability upto 100 uM after 24 hrs by WST-1 assay; type: cell-based
# [4] = biological target: T1, Nuclear receptor subfamily 4 group A member 2; experiment: Agonist activity at Gal4-fused human Nurr1 LBD expressed in HEK293T cells co-expressing firefly luciferase assessed as luciferase activity by hybrid reporter gene assay; type: cell-based
# [5] = biological target: T1, Nuclear receptor subfamily 4 group A member 2; experiment: Agonist activity at Gal4-fused human Nurr1 LBD expressed in HEK293T cells co-expressing firefly luciferase assessed as fold increase in luciferase activity by hybrid reporter gene assay relative to control; type: cell-based; conditions: filed as agonist
# [6] = biological target: T1, Nuclear receptor subfamily 4 group A member 2; experiment: Agonist activity at Gal4-fused human Nurr1 LBD expressed in HEK293T cells co-expressing firefly luciferase assessed as luciferase activity in presence of 5-(Pyridin-3-yl)-1-methylindole-3-carboxylic Acid Methyl Ester by hybrid reporter gene assay; type: cell-based
# [7] = test system: HEK-293T; experiment: Cytotoxicity against human HEK293T cells assessed as reduction in cell viability at >30 uM after 24 hrs by WST-1 assay; type: cell-based
# [8] = biological target: T1, Nuclear receptor subfamily 4 group A member 2; experiment: Inverse agonist activity at Gal4-fused human Nurr1 LBD expressed in HEK293T cells co-expressing firefly luciferase assessed as luciferase activity in presence of AQ by hybrid reporter gene assay; type: cell-based
# [9] = biological target: T1, Nuclear receptor subfamily 4 group A member 2; experiment: Inverse agonist activity at human Nurr1 LBD assessed as inhibition of NCoA6-Nurr1 interaction after 2 hrs by HTRF assay
# [10] = biological target: T1, Nuclear receptor subfamily 4 group A member 2; experiment: Inverse agonist activity at human Nurr1 LBD assessed as inhibition of Nurr1 homodimerization after 2 hrs by HTRF assay; conditions: filed as inverse agonist
# [11] = biological target: T1, Nuclear receptor subfamily 4 group A member 2; experiment: Inverse agonist activity at Gal4-fused human Nurr1 monomer response element NBRE expressed in HEK293T cells co-expressing firefly luciferase assessed as luciferase activity by hybrid reporter gene assay; type: cell-based
# [12] = test system: T98G; experiment: Cytotoxicity against human T98G cells assessed as reduction in cell viability at >30 uM after 24 hrs by WST-1 assay; type: cell-based
# [13] = biological target: T1, Nuclear receptor subfamily 4 group A member 2; experiment: Inverse agonist activity at human Nurr1 LBD assessed as displacement of NCoR1 from Nurr1 after 2 hrs by HTRF assay
# [14] = biological target: T1, Nuclear receptor subfamily 4 group A member 2; experiment: Inverse agonist activity at human Nurr1 LBD assessed as inhibition of CBP1-Nurr1 interaction after 2 hrs by HTRF assay
# [15] = biological target: T1, Nuclear receptor subfamily 4 group A member 2; experiment: Inverse agonist activity at human Nurr1 LBD assessed as inhibition of heterodimerization of Nurr1 with RXRalpha after 2 hrs by HTRF assay
# [16] = biological target: T1, Nuclear receptor subfamily 4 group A member 2; experiment: Inverse agonist activity at human Nurr1 LBD assessed as inhibition of SRC1-Nurr1 interaction after 2 hrs by HTRF assay
# [17] = biological target: T1, Nuclear receptor subfamily 4 group A member 2; experiment: Inverse agonist activity at human Nurr1 LBD assessed as displacement of NCoR2 from Nurr1 after 2 hrs by HTRF assay
IC50 ([1]; hek293t),IC50 ([1]; read-out: IC50) [µM],SMILES,other results
Not Active,,CCOC(=O)c1c[nH]c2ccccc12,
Not Active,,CC(C)(C)OC(=O)c1c[nH]c2ccccc12,
,35,COC(=O)c1c[nH]c2c(C)cccc12,
,23,COC(=O)c1c[nH]c2ccc(OC)cc12,
Not Active,,COC(=O)c1c[nH]c2c(OC)cccc12,
,57,COC(=O)c1c[nH]c2cc(C)ccc12,
,55,COC(=O)c1c[nH]c2cccc(Cl)c12,
,48,COC(=O)c1c[nH]c2ccccc12,
Not Active,,COC(=O)c1c[nH]c2ccc(Cc3ccccc3)cc12,
Not Active,,COC(=O)c1c[nH]c2cccc(C)c12,
,20,COC(=O)c1c[nH]c2ccc(C)cc12,
,24,COC(=O)c1c[nH]c2ccc(Cl)cc12,
,15,COC(=O)c1c[nH]c2ccc(Br)cc12,
,19,COC(=O)c1c[nH]c2c(Cl)cccc12,

# More lines, now with the values behind:
SMILES,IC50 ([1]; hek293t),IC50 ([1]; read-out: IC50) [µM],other results
CCNC(=O)c1cn(C)c2ccc(-c3ccccc3)cc12,Not Active,,
COC(=O)c1c(Cl)[nH]c2ccccc12,,34,
COC(=O)c1cn(C)c2ccc(-c3ccccc3)cc12,,,Activity [2]: Non-Toxic; Activity [3]: Non-Toxic
COC(=O)c1cn(-c2ccccc2)c2ccccc12,,,EC50 [4]: 81 µM; fold change (FC) [5]: 1.9
CCC(=O)c1c[nH]c2ccccc12,Not Active,,
COC(=O)c1cn(C)c2ccccc12,,21,
O=Cc1c[nH]c2ccccc12 [3-FORMYLINDOLE],Not Active,,
CCN(CC)Cc1cc(Nc2ccnc3cc(Cl)ccc23)ccc1O [AMODIAQUINE],,,EC50 [4]: 41 µM; EC50 [6]: 82 µM
COC(=O)c1cn(C)c2c(Cl)cc(-c3cccnc3)cc12,,11,
COC(=O)c1c(C)[nH]c2ccccc12,,53,
CC(=O)c1c[nH]c2ccccc12,Not Active,,
O=C(O)c1c[nH]c2ccccc12,Not Active,,
CNC(=O)c1cn(C)c2ccc(-c3ccccc3)cc12,,14,
CN(C)C(=O)c1cn(C)c2ccc(-c3ccccc3)cc12,,> 30,
COC(=O)c1cn(Cc2ccccc2)c2ccccc12,Not Active,,
COC(=O)c1cn(C)c2ccc(-c3cccnc3)cc12,,3.8,Activity [7]: Toxic; IC50 [8]: 3.7 µM; Activity [9]: inactive; Activity [10]: Dose-Dependent Effect; IC50 [11]: 10 µM; Activity [12]: Toxic; IC50 [13]: 57 µM; Activity [14]: inactive; Activity [15]: inactive; Activity [16]: inactive; IC50 [17]: 29 µM
CCn1cc(C(=O)OC)c2ccccc21,,31,
O=C(Oc1ccccc1)c1c[nH]c2ccccc12,,,EC50 [4]: 11 µM; fold change (FC) [5]: 1.93
